In patent EP1534716B1, “HETEROBICYCLIC PYRAZOLE DERIVATIVES AS KINASE INHIBITORS” (priority 2002, dated 2004):
Counter-ions that a name gives are not always drawn.

Legend:
Type in all cases: biochemical
cdk2/Cyclin A = cdk2/Cyclin A (Homo sapiens, UniProt P24941); assay: Inhibition assay of cdk2/Cyclin A activity (SPA); details: 10 µM ATP, 60 min at room temperature
Method: (§1) The inhibiting activity of putative cdk/cyclin inhibitors and the potency of selected compounds is determined through a method of assay based on the use of the SPA technology (Amersham Pharmacia Biotech).
(§2) The assay consists of the transfer of radioactivity labelled phosphate moiety by the kinase to a biotinylated substrate. The resulting 33P-labelled biotinylated product is allowed to bind to streptavidin-coated SPA beads (biotin capacity 130 pmol/mg), and light emitted was measured in a scintillation counter.
Inhibition assay of cdk2/Cyclin A activity
Kinase reaction: 4 µM in house biotinylated histone H1 (Sigma # H-5505) substrate, 10 µM ATP (0.1 microCi P^33γ-ATP), 1.1 nM Cyclin A/CDK2 complex, inhibitor in a final volume of 30 µl buffer (TRIS HCl 10 mM pH 7.5, MgCl2 10 mM, DTT 7.5 mM + 0.2 mg/ml BSA) were added to each well of a 96 U bottom. After incubation for 60 min at room temperature, the reaction was stopped by addition of 100 µl PBS buffer containing 32 mM EDTA, 500 µM cold ATP, 0.1% Triton X100 and 10mg/ml streptavidin coated SPA beads. After 20 min incubation, 110 µL of suspension were withdrawn and transferred into 96-well OPTIPLATEs containing 100 µl of 5M CsCl. After 4 hours, the plates were read for 2 min in a Packard TOP-Count radioactivity reader.
(§3) Experimental data were analyzed by the computer program GraphPad Prizm using the four parameter logistic equation: [formula] where x is the logarithm of the inhibitor concentration, y is the response; y starts at bottom and goes to top with a sigmoid shape.

Cdc7/dbf4 = Cdc7/dbf4 (Homo sapiens, UniProt O00311); assay: Inhibition assay of Cdc7/dbf4 activity (SPA); details: 2 µM ATP, 60 minutes at 37°C
Method: Inhibition assay of Cdc7/dbf4 activity
The inhibition assay of Cdc7/dbf4 activity is performed according to the following protocol.
The Biotin-MCM2 substrate is trans-phosphorylated by the Cdc7/Dbf4 complex in the presence of ATP traced with γ^33-ATP. The phosphorylated Biotin-MCM2 substrate is then captured by Streptavidin-coated SPA beads and the extent of phosphorylation evaluated by β counting.
The inhibition assay of Cdc7/dbf4 activity was performed in 96 wells plate according to the following protocol.
To each well of the plate were added: • 10 µl substrate (biotinylated MCM2, 6 µM final concentration) • 10 µl enzyme (Cdc7/Dbf4, 17.9 nM final concentration) • 10 µl test compound (12 increasing concentrations in the nM to µM range to generate a dose-response curve) • 10 µl of a mixture of cold ATP (2 µM final concentration) and radioactive ATP (1/5000 molar ratio with cold ATP) was then used to start the reaction which was allowed to take place at 37°C.
Substrate, enzyme and ATP were diluted in 50 mM HEPES pH 7.9 containing 15 mM MgCl2, 2 mM DTT, 3 µM NaVO3, 2mM glycerophosphate and 0.2mg/ml BSA. The solvent for test compounds also contained 10% DMSO.
After incubation for 60 minutes, the reaction was stopped by adding to each well 100 µl of PBS pH 7.4 containing 50 mM EDTA, 1 mM cold ATP, 0.1% Triton X100 and 10 mg/ml streptavidin coated SPA beads.
After 20 min incubation, 110 µL of suspension were withdrawn and transferred into 96-well OPTIPLATEs containing 100 µl of 5M CsCl. After 4 hours, the plates were read for 2 min in a Packard TOP-Count radioactivity reader.
IC50 determination: see above.

PAK4 = PAK4 (Homo sapiens, UniProt O96013); assay: PAK4 inhibition
Aurora-2 = biological target: T1, Aurora-2 (Homo sapiens, UniProt O14965); assay: Inhibition assay of Aurora-2 activity (SPA); details: 10 µM ATP, 60 minutes at room temperature
T1 sequence (O14965 1-403): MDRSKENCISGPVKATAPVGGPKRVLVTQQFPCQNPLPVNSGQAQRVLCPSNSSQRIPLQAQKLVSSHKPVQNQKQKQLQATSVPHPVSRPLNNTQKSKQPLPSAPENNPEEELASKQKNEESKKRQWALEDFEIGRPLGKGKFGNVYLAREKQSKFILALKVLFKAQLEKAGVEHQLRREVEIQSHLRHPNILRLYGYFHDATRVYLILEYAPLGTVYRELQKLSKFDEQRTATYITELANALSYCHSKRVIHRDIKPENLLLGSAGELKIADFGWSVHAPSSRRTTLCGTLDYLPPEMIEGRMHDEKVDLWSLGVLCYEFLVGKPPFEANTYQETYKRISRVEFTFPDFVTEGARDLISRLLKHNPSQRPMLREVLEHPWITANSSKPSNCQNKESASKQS
Method: as §1, §2, §3
Inhibition assay of Aurora-2 activity
After 60 minutes at room temperature incubation, reaction was stopped and biotinylated peptide captured by adding 100 µl of bead suspension.
Stratification: 100 µl of CsC12 5 M were added to each well and let stand 4 hour before radioactivity was counted in the Top-Count instrument.
IC50 determination: see above

Sequence of PAK4 (O96013 whole entry, species assumed): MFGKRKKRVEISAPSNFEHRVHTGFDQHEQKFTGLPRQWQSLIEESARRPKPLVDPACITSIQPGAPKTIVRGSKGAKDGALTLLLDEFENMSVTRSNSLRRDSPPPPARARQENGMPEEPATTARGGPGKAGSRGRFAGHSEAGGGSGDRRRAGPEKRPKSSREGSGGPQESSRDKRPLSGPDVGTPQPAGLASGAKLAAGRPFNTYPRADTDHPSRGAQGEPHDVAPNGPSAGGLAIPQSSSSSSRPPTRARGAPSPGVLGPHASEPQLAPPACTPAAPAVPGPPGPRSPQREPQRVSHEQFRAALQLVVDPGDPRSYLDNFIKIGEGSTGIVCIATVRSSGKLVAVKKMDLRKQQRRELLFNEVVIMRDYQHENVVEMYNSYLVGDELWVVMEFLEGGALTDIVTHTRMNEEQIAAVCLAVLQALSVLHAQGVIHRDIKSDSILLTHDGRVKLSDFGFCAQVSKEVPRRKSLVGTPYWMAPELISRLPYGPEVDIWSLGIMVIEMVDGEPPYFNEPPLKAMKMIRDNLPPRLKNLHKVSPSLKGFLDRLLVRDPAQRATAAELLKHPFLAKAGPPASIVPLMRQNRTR
Sequence of Cdc7/dbf4 (O00311 whole entry, species assumed): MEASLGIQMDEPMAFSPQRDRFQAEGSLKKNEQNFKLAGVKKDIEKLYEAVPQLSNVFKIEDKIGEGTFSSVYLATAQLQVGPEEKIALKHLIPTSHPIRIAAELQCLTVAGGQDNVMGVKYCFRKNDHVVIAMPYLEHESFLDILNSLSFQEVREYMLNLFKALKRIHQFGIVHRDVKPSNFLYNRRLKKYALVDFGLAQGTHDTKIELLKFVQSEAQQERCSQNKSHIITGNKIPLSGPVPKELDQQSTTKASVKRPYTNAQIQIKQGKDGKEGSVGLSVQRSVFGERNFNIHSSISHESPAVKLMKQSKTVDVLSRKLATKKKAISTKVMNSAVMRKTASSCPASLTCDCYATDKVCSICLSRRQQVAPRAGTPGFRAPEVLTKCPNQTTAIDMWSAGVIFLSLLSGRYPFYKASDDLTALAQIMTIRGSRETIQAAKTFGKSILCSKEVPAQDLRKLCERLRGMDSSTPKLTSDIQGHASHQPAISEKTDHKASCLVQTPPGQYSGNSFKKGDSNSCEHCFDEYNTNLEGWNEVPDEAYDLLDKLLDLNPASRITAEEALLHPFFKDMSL
Sequence of Cdc7/dbf4 (Q9UBU7 whole entry partner, species assumed): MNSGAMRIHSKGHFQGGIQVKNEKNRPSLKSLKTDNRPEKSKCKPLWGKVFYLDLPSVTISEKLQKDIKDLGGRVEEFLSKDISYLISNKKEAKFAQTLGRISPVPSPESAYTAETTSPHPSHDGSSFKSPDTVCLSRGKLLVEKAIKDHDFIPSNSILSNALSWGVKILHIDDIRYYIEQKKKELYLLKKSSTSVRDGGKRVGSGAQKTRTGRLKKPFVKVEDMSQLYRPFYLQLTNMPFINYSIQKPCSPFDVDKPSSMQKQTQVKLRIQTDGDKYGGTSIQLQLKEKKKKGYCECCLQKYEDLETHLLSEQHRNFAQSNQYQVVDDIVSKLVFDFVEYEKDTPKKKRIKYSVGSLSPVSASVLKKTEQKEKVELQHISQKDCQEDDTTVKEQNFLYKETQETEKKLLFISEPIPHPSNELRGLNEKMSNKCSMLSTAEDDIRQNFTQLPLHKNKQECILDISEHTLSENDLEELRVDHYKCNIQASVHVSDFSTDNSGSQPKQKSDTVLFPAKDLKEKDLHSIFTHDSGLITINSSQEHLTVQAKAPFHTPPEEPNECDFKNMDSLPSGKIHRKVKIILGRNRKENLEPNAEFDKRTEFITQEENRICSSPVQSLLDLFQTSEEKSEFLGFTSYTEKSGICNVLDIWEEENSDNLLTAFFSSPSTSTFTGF

IC50 (cdk2/Cyclin A) [µM]	IC50 (Cdc7/dbf4) [µM]	IC50 (PAK4) [µM]	IC50 (Aurora-2) [µM]	Compound
< 0.5	< 1	< 0.5		CCNC(=O)c1cc2[nH]nc(NC(=O)c3ccc(N4CCN(C)CC4)cc3)c2s1 [Compound 93, N-ethyl-3-{[4-(4-methylpiperazin-1-yl)benzoyl]amino}-1H-thieno[3,2-c]pyrazole-5-carboxamide dihydrochloride]
< 0.5	< 1	< 0.5	< 0.1	CN1CCN(c2ccc(C(=O)Nc3n[nH]c4cc(C(=O)NCc5ccco5)sc34)cc2)CC1 [Compound 114, N-(2-furylmethyl)-3-{[4-(4-methylpiperazin-1-yl)benzoyl]amino}-1H-thieno[3,2-c]pyrazole-5-carboxamide]
	< 1	< 0.5	< 0.1	CN1CCN(c2ccc(C(=O)Nc3n[nH]c4cc(C(=O)NCc5cccs5)sc34)cc2)CC1 [Compound 115, 3-{[4-(4-methylpiperazin-1-yl)benzoyl]amino}-N-(thien-2-ylmethyl)-1H-thieno[3,2-c]pyrazole-5-carboxamide]
